Test results reported in PubChem BioAssay (NCI).
Values joined by “and” are separate entries in the source; they are usually repeats but may differ in a detail not shown here. Identical values can stand only once.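 The compound was tested at five concentrations on cells cultured in 96-well plates, with a 48-hour exposure period. Here, GI50 denotes the concentration required for 50% inhibition of growth. TGI: concentration producing complete growth inhibition.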

Assays:
Assay in all cases: NCI tumour cell line growth inhibition, 48 h
[1] = system: MOLT-4 leukemia
[2] = system: SK-MEL-2 melanoma
[3] = system: SN12C renal
[4] = system: CAKI-1 renal
[5] = system: SK-OV-3 ovarian
[6] = system: NCI/ADR-RES ovarian
[7] = system: TK-10 renal
[8] = system: MDA-N
[9] = system: MDA-MB-435
[10] = system: KM20L2 colon
[11] = system: HCT-15 colon
[12] = system: DLD-1 colon
[13] = system: LOX IMVI melanoma
[14] = system: UACC-62 melanoma
[15] = system: PC-3 prostate
[16] = system: SN12K1 renal
[17] = system: P388/ADR leukemia
[18] = system: P388 leukemia

| SMILES | GI50 [1] [µM] | GI50 [2] [µM] | TGI [2] | GI50 [3] [µM] | TGI [3] | GI50 [4] [µM] | TGI [5] | GI50 [6] [µM] | TGI [6] | TGI [7] | TGI [8] | GI50 [9] [µM] | TGI [12] [µM] | GI50 [13] [µM] | GI50 [14] [µM] | TGI [14] | GI50 [15] [µM] | TGI [15] | other results |
| --- | --- | --- | --- | --- | --- | --- | --- | --- | --- | --- | --- | --- | --- | --- | --- | --- | --- | --- | --- |
| CCCCCCCCCCCCCCCCCCOP(=O)([O-])OC1CC[N+](C)(C)CC1 | 2.15 | 8.48 | > 10 µM and 30 µM | 3.87 | > 10 µM and 15.7 µM | 2.03 | > 10 µM and 19.1 µM | > 10 | > 10 µM and 28 µM | 1.89 µM and 5.34 µM | 26.5 µM | 5.91 | 22.4 | 3.89 | 1.17 | > 10 µM and 22.5 µM | 0.707 | 3.46 µM and 3.75 µM | TGI [1]: 5.57 µM and 11.3 µM; TGI [4]: > 10 µM and 15.6 µM; GI50 [7]: 0.535 µM; TGI [9]: > 10 µM and 30.3 µM; TGI [10]: 6.16 µM; TGI [11]: 9.86 µM and 8.72 µM; TGI [13]: > 10 µM and 22 µM |
| COc1cccc2c1C(CO)N1C(C#N)C3CC(C(=O)O)C(C1C2)N3C (centres undefined) | 0.0934 | 0.139 | 2.32 µM and 0.305 µM | 0.373 | 8.34 µM and > 17.8 µM | 0.404 | 8.34 µM and > 31.1 µM | 0.194 | 0.549 µM and 1.12 µM | 9.27 µM | 0.635 µM and 2.25 µM | 0.168 | 9.07 | 0.254 | 0.192 | 2.23 µM and 0.452 µM | 0.462 | > 100 µM | TGI [16]: > 100 µM; GI50 [5]: 2.6 µM; TGI [17]: 1.09 µM; GI50 [10]: 0.207 µM; TGI [18]: 6.42 µM; GI50 [11]: 0.38 µM |
